Data on 13 molecules can be found in PubChem BioAssay (NCI).

The structures appear in SMILES notation.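 Method: 48-hour compound exposure of cells in 96-well plates, five concentrations, linear interpolation of endpoints. GI50 marks 50% less growth. TGI: concentration producing complete growth inhibition.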 Some results are limits rather than exact numbers.

Test systems include SF-268 CNS; OVCAR-5 ovarian; SNB-19 CNS; OVCAR-4 ovarian; SK-MEL-5 melanoma; HCC-2998 colon; DU-145 prostate; K-562 leukemia.
What all share (assay): inhibition of tumour cell growth, NCI panel, 48 h

`COc1ccc(-c2[nH]c3ccccc3c2-c2ccc(OC)cc2)cc1`: the GI50 was 3.99 µM in the assay on SF-268 CNS; 15.4 µM in the assay on OVCAR-5 ovarian; 5.06 µM in the assay on SNB-19 CNS; 7.66 µM with OVCAR-4 ovarian; 3.65 µM in the assay with SK-MEL-5 melanoma; 6.11 µM in the assay on HCC-2998 colon. Further, the GI50 was 3.58 µM with DU-145 prostate and 2.89 µM in the assay with K-562 leukemia. Moreover, the TGI in the assay with SF-268 CNS amounted to 15.1 µM; in the assay with OVCAR-5 ovarian, 33.9 µM; in the assay with SNB-19 CNS, 20.6 µM; in the assay on OVCAR-4 ovarian, 23.6 µM; in the assay on SK-MEL-5 melanoma it was 15.2 µM; with HCC-2998 colon it was 21.1 µM. Also, the TGI in the assay on DU-145 prostate was 11.4 µM; with K-562 leukemia, 10.4 µM.

Take `CCCN(CCS(C)(=O)=O)Cc1ccc(-c2ccc3ncnc(Nc4ccc(OCc5cccc(F)c5)c(Cl)c4)c3c2)o1`: the GI50 in the assay on SF-268 CNS was > 25 µM; in the assay with OVCAR-5 ovarian, > 25 µM; in the assay on SNB-19 CNS, > 25 µM; with OVCAR-4 ovarian it was 21.3 µM; in the assay with SK-MEL-5 melanoma, > 14.1 µM; with HCC-2998 colon, > 25 µM. For the same molecule, the GI50 is > 22.4 µM with DU-145 prostate and 9.49 µM in the assay with K-562 leukemia. The TGI in the assay on SF-268 CNS, with OVCAR-5 ovarian, in the assay with SNB-19 CNS, in the assay with OVCAR-4 ovarian, in the assay with SK-MEL-5 melanoma and in the assay with HCC-2998 colon was > 25 µM throughout. In addition, the TGI in the assay with DU-145 prostate and in the assay with K-562 leukemia was > 25 µM each time.

As to `FC(F)(F)c1ccc(-c2cnc(-c3ncon3)nc2NC2CCCCCC2)cc1`, the GI50 with SF-268 CNS is 64 µM; with OVCAR-5 ovarian, > 100 µM; in the assay on SNB-19 CNS, 29.2 µM; with OVCAR-4 ovarian, 37.2 µM; in the assay with SK-MEL-5 melanoma it was 40.7 µM; in the assay with HCC-2998 colon it was 56.6 µM. Moreover, the GI50 was 63.3 µM in the assay on DU-145 prostate and 34.8 µM in the assay with K-562 leukemia. The TGI in the assay on SF-268 CNS, with OVCAR-5 ovarian, in the assay on SNB-19 CNS, in the assay with OVCAR-4 ovarian, with SK-MEL-5 melanoma and in the assay with HCC-2998 colon was > 100 µM in each case. Moreover, the TGI in the assay on DU-145 prostate and in the assay on K-562 leukemia was > 100 µM in each case.

Regarding `N#Cc1c(N2CCOCC2)nc(=S)[nH]c1-c1ccco1`, the GI50 was 10.9 µM in the assay with SF-268 CNS; 4.18 µM with OVCAR-5 ovarian; 26 µM in the assay with SNB-19 CNS; 16.9 µM in the assay on OVCAR-4 ovarian; 5.06 µM in the assay with SK-MEL-5 melanoma; 25.5 µM with HCC-2998 colon. In addition, the GI50 with DU-145 prostate was 10.2 µM; in the assay on K-562 leukemia, 24.7 µM. Besides, the TGI in the assay with SF-268 CNS was > 100 µM; in the assay on OVCAR-5 ovarian it was 88.3 µM; in the assay with SNB-19 CNS, > 100 µM; with OVCAR-4 ovarian, > 100 µM; with SK-MEL-5 melanoma it was > 100 µM; in the assay with HCC-2998 colon, > 100 µM. The TGI in the assay with DU-145 prostate and in the assay on K-562 leukemia was > 100 µM in each case.

For the molecule `CC(C)C[C@H](NC(=O)CNC(=O)c1cc(Cl)ccc1Cl)B1OC(=O)CC(CC(=O)O)(C(=O)O)O1` (some centres undefined), the GI50 with SF-268 CNS was 0.0723 µM; in the assay with OVCAR-5 ovarian, 0.0928 µM; in the assay on SNB-19 CNS, 0.209 µM; with OVCAR-4 ovarian it was 0.0733 µM; in the assay on SK-MEL-5 melanoma, 0.0177 µM; in the assay on HCC-2998 colon, 0.0326 µM. In addition, the GI50 in the assay on DU-145 prostate is 0.0804 µM; with K-562 leukemia it was 0.074 µM. For the same molecule, the TGI in the assay on SF-268 CNS was 2.43 µM; in the assay with OVCAR-5 ovarian it was 1.2 µM; in the assay on SNB-19 CNS, > 100 µM; with OVCAR-4 ovarian, 19 µM; with SK-MEL-5 melanoma, 0.0467 µM; in the assay with HCC-2998 colon it was 0.105 µM. The TGI in the assay on DU-145 prostate is 14.8 µM; in the assay with K-562 leukemia, > 100 µM.

As for `CC1=C2[C@@H](CC1)[C@]1(C)O[C@@](c3ccccc3)(C[C@H]1OC(=O)CO)[C@H]2OC(=O)/C=C/c1ccccc1`, the GI50 in the assay with SF-268 CNS is 2.78 µM; in the assay with OVCAR-5 ovarian it was 20.2 µM; in the assay on SNB-19 CNS, 22.1 µM; in the assay on OVCAR-4 ovarian it was 15.2 µM; in the assay with SK-MEL-5 melanoma, 15.3 µM; with HCC-2998 colon, 15.2 µM. For the same molecule, the GI50 in the assay on DU-145 prostate was 16.6 µM; in the assay on K-562 leukemia, 14 µM. In addition, the TGI in the assay on SF-268 CNS came out at 32.5 µM; in the assay with OVCAR-5 ovarian it was 47.4 µM; in the assay on SNB-19 CNS it was 59.8 µM; in the assay with OVCAR-4 ovarian it was 43 µM; in the assay with SK-MEL-5 melanoma, 29.7 µM; in the assay on HCC-2998 colon, 31.6 µM. Besides, the TGI was determined as 34.5 µM with DU-145 prostate and 61.9 µM in the assay with K-562 leukemia.

Consider `O=C1OCC2=C1C(c1ccccc1)c1cc3c(cc1N2)OCO3` (centres undefined), for which the GI50 was 0.0654 µM in the assay with SF-268 CNS; 0.0829 µM in the assay with OVCAR-5 ovarian; 0.0568 µM in the assay with SNB-19 CNS; 0.0823 µM in the assay with OVCAR-4 ovarian; 0.0336 µM with SK-MEL-5 melanoma; 0.0333 µM in the assay on HCC-2998 colon. The GI50 in the assay with DU-145 prostate is 0.0443 µM. Also, the TGI is > 43.4 µM in the assay on SF-268 CNS; > 100 µM with OVCAR-5 ovarian; > 100 µM in the assay on SNB-19 CNS; > 48.3 µM in the assay with OVCAR-4 ovarian; 0.234 µM in the assay on SK-MEL-5 melanoma; > 38.7 µM in the assay with HCC-2998 colon. Besides, the TGI in the assay with DU-145 prostate is > 100 µM; with K-562 leukemia, 32.7 µM.

Regarding `CN(C)CCCn1c(=O)c2ccccc2c2ccccc21`, the GI50 in the assay with SF-268 CNS is 15.6 µM; with OVCAR-5 ovarian, 22.6 µM; in the assay with SNB-19 CNS, 23.3 µM; in the assay with OVCAR-4 ovarian, 22.3 µM; with SK-MEL-5 melanoma, 12.3 µM; in the assay on HCC-2998 colon, 16.4 µM. In addition, the GI50 with DU-145 prostate was 18.5 µM; in the assay with K-562 leukemia, 21.8 µM. Also, the TGI with SF-268 CNS is 41.4 µM; with OVCAR-5 ovarian it was 69.7 µM; in the assay with SNB-19 CNS, > 100 µM; with OVCAR-4 ovarian, 70.5 µM; in the assay with SK-MEL-5 melanoma, 24.9 µM; with HCC-2998 colon, 34.8 µM. For the same molecule, the TGI in the assay on DU-145 prostate was 52 µM; in the assay with K-562 leukemia, > 100 µM.

Turning to `O=C1OC(=O)C(=C\c2ccc3c(c2)OCO3)/C1=C/c1ccc2c(c1)OCO2`, the TGI in the assay on SF-268 CNS, in the assay on OVCAR-5 ovarian, in the assay on SNB-19 CNS, in the assay with OVCAR-4 ovarian, with SK-MEL-5 melanoma and with HCC-2998 colon was > 100 µM each time. The TGI in the assay on DU-145 prostate and in the assay with K-562 leukemia was > 100 µM throughout.

In the case of `CNCCCNCCCCNCCCN1C(=O)c2ccc3c4c(ccc(c24)C1=O)C(=O)N(CCCNCc1ccccc1OC)C3=O`, the GI50 in the assay with SF-268 CNS is 3.51 µM; in the assay with OVCAR-5 ovarian, 5.35 µM; with SNB-19 CNS, 3.79 µM; in the assay on OVCAR-4 ovarian, 1.7 µM; with SK-MEL-5 melanoma, 0.813 µM; with HCC-2998 colon, 3.12 µM. Moreover, the values for the GI50 in the assay with DU-145 prostate and in the assay on K-562 leukemia were 5.09 µM and 2.78 µM, respectively. The TGI is 44.3 µM with SF-268 CNS; 26.9 µM with OVCAR-5 ovarian; 17.2 µM in the assay on SNB-19 CNS; 9.19 µM in the assay on OVCAR-4 ovarian; 3 µM in the assay with SK-MEL-5 melanoma; 20.2 µM in the assay on HCC-2998 colon. Further, the TGI in the assay on DU-145 prostate stood at 17.3 µM; in the assay with K-562 leukemia, 34.6 µM.

For `COc1cc2c(cc1OCCCn1c(-c3ccccn3)nc3ccccc31)N=C[C@@H]1CCCN1C2=O`, the GI50 was 3.07 µM with SF-268 CNS; 3.41 µM with OVCAR-5 ovarian; 3.61 µM in the assay with SNB-19 CNS; 3.39 µM in the assay on OVCAR-4 ovarian; 1.57 µM with SK-MEL-5 melanoma; 1.13 µM in the assay with HCC-2998 colon. Also, the GI50 with DU-145 prostate was 2.72 µM; with K-562 leukemia it was 12.2 µM. The TGI in the assay with SF-268 CNS was 9.79 µM; in the assay with OVCAR-5 ovarian, 9.34 µM; in the assay with SNB-19 CNS, 18.1 µM; with OVCAR-4 ovarian, > 42.6 µM; in the assay with SK-MEL-5 melanoma, 2.96 µM; with HCC-2998 colon it was 2.65 µM. Further, the TGI in the assay on DU-145 prostate was 6.72 µM; with K-562 leukemia, > 55.3 µM.

Consider `O=C1OCC2=C1C(c1ccc(Cl)c(Cl)c1)c1cc3c(cc1N2CCO)OCCO3` (centres undefined), for which the GI50 with SF-268 CNS was 0.261 µM; with OVCAR-5 ovarian, 0.736 µM; in the assay on SNB-19 CNS, 0.327 µM; with OVCAR-4 ovarian, 0.382 µM; with SK-MEL-5 melanoma it was 0.148 µM; in the assay on HCC-2998 colon, 0.503 µM. Further, the GI50 in the assay on DU-145 prostate and with K-562 leukemia was 0.211 µM each time. Besides, the TGI in the assay on SF-268 CNS was 11.6 µM; in the assay on OVCAR-5 ovarian, > 33.2 µM; in the assay with SNB-19 CNS it was > 50 µM; with OVCAR-4 ovarian, > 50 µM; in the assay on SK-MEL-5 melanoma, 6.37 µM; with HCC-2998 colon, 4.33 µM. Further, the TGI in the assay on DU-145 prostate was 6.53 µM; in the assay on K-562 leukemia, > 22.6 µM.

Consider `O=C1c2c(c3c4ccccc4[nH]c3c3ccc4ccccc4c23)C(=O)N1CCN1CCNCC1`, for which the GI50 in the assay on SF-268 CNS is 1.86 µM; in the assay with OVCAR-5 ovarian it was 1.72 µM; with SNB-19 CNS, 1.6 µM; in the assay with OVCAR-4 ovarian, 1.65 µM; in the assay with SK-MEL-5 melanoma, 1.78 µM; in the assay with HCC-2998 colon, 1.63 µM. Also, the GI50 is 1.73 µM with DU-145 prostate and 1.44 µM with K-562 leukemia. For the same molecule, the TGI in the assay with SF-268 CNS amounted to 4.03 µM; with OVCAR-5 ovarian, 3.12 µM; in the assay on SNB-19 CNS it was 2.99 µM; with OVCAR-4 ovarian, 3.26 µM; with SK-MEL-5 melanoma it was 3.31 µM; with HCC-2998 colon it was 3.15 µM. Besides, the values for the TGI in the assay with DU-145 prostate and in the assay on K-562 leukemia were 3.25 µM and 3.09 µM, respectively.
